Numbered stars: 1 amine (or outer) side, 2 acyl side, 3 side chain; on linkers, the order of the positions; unused ones are H or OH. Bridge positions count the residues as written; N and C are the ends. Square brackets hold non-standard residues; d marks the D form. Peptide text beside a SMILES is read from it. Tyr(Me) = Yme = 4-methoxy-L-phenylalanine (O-methyl-tyrosine), COc1ccc(C[C@H](N[*:1])C(=O)[*:2])cc1; 1Nal = N[C@@H](Cc1cccc2ccccc12)C(=O)O; 2Nal = N[C@@H](Cc1ccc2ccccc2c1)C(=O)O; AEF = NCCOc1ccc(C[C@H](N)C(=O)O)cc1; Orn = NCCC[C@H](N)C(=O)O; Thp = NC1(C(=O)O)CCOCC1; Aib = CC(C)(N)C(=O)O
T1: IL-23 receptor on the surface of HEK-Blue IL-23 cells (UniProt Q5VWK5 24-629, limits assumed)
T1 sequence (looked up): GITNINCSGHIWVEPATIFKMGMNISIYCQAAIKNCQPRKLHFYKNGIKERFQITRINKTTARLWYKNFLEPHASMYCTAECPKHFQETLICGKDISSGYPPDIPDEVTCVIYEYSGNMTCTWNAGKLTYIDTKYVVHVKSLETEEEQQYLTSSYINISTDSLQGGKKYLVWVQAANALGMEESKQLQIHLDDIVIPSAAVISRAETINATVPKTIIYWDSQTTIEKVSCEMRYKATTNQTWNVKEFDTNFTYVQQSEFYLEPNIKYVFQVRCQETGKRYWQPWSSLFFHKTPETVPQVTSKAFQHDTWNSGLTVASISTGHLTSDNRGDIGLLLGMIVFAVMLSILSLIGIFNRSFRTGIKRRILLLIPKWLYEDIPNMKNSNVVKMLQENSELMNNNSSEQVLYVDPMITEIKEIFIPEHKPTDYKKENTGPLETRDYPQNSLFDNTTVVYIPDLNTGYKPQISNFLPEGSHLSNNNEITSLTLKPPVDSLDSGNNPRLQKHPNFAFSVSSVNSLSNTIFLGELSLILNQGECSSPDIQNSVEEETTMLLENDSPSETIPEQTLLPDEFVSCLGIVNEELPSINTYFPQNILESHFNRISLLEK

B1: peptide compound SEQ ID NO: 7 (peptide)
peptide: Ac-[dK]NTWQL[Tyr(Me)][1Nal][Aib]DNN-NH2
modifications: lactam 1-10
SMILES: COc1ccc(C[C@@H]2NC(=O)[C@H](CC(C)C)NC(=O)[C@H](CCC(N)=O)NC(=O)[C@H](Cc3c[nH]c4ccccc34)NC(=O)[C@H]([C@@H](C)O)NC(=O)[C@H](CC(N)=O)NC(=O)[C@H](NC(C)=O)CCCCNC(=O)C[C@@H](C(=O)N[C@@H](CC(N)=O)C(=O)N[C@@H](CC(N)=O)C(N)=O)NC(=O)C(C)(C)NC(=O)[C@H](Cc3cccc4ccccc34)NC2=O)cc1
B2: peptide compound SEQ ID NO: 5 (peptide)
peptide: Ac-[dK]NTWQR[Tyr(Me)][2Nal][Aib]ENN-NH2
modifications: lactam 1-10
SMILES: COc1ccc(C[C@@H]2NC(=O)[C@H](CCCNC(=N)N)NC(=O)[C@H](CCC(N)=O)NC(=O)[C@H](Cc3c[nH]c4ccccc34)NC(=O)[C@H]([C@@H](C)O)NC(=O)[C@H](CC(N)=O)NC(=O)[C@H](NC(C)=O)CCCCNC(=O)CC[C@@H](C(=O)N[C@@H](CC(N)=O)C(=O)N[C@@H](CC(N)=O)C(N)=O)NC(=O)C(C)(C)NC(=O)[C@H](Cc3ccc4ccccc4c3)NC2=O)cc1
B3: peptide compound SEQ ID NO: 8 (peptide)
peptide: Ac-[dK]NTWQA[Tyr(Me)][1Nal][Aib]DNN-NH2
modifications: lactam 1-10
SMILES: COc1ccc(C[C@@H]2NC(=O)[C@H](C)NC(=O)[C@H](CCC(N)=O)NC(=O)[C@H](Cc3c[nH]c4ccccc34)NC(=O)[C@H]([C@@H](C)O)NC(=O)[C@H](CC(N)=O)NC(=O)[C@H](NC(C)=O)CCCCNC(=O)C[C@@H](C(=O)N[C@@H](CC(N)=O)C(=O)N[C@@H](CC(N)=O)C(N)=O)NC(=O)C(C)(C)NC(=O)[C@H](Cc3cccc4ccccc34)NC2=O)cc1
B4: peptide compound SEQ ID NO: 6 (peptide)
peptide: Ac-DNTWQR[Tyr(Me)][2Nal][Aib][Orn]NN-NH2
modifications: lactam 1-10
SMILES: COc1ccc(C[C@@H]2NC(=O)[C@H](CCCNC(=N)N)NC(=O)[C@H](CCC(N)=O)NC(=O)[C@H](Cc3c[nH]c4ccccc34)NC(=O)[C@H]([C@@H](C)O)NC(=O)[C@H](CC(N)=O)NC(=O)[C@@H](NC(C)=O)CC(=O)NCCC[C@@H](C(=O)N[C@@H](CC(N)=O)C(=O)N[C@@H](CC(N)=O)C(N)=O)NC(=O)C(C)(C)NC(=O)[C@H](Cc3ccc4ccccc4c3)NC2=O)cc1
B5: peptide compound SEQ ID NO: 41 (peptide)
peptide: Ac-KNTWQR[Tyr(Me)][2Nal][Thp]DNN-NH2
modifications: lactam 1-10
SMILES: COc1ccc(C[C@@H]2NC(=O)[C@H](CCCNC(=N)N)NC(=O)[C@H](CCC(N)=O)NC(=O)[C@H](Cc3c[nH]c4ccccc34)NC(=O)[C@H]([C@@H](C)O)NC(=O)[C@H](CC(N)=O)NC(=O)[C@@H](NC(C)=O)CCCCNC(=O)C[C@@H](C(=O)N[C@@H](CC(N)=O)C(=O)N[C@@H](CC(N)=O)C(N)=O)NC(=O)C3(CCOCC3)NC(=O)[C@H](Cc3ccc4ccccc4c3)NC2=O)cc1

target: T1, IL-23 receptor on the surface of …; test: cell-based or functional assay; settings: not given

Molecule	Inhibition of IL-23 induced pSTAT3 (IC50 nM)
B1	850 nM
B2	432 nM
B3	943 nM
B4	366 nM
B5	221 nM

tested on: IL-23 induced STAT3 signaling; test: Inhibition of IL-23 induced STAT3 signaling in HEK-Blue IL-23 cells (SEAP reporter); format: cell-based; settings: human IL-23 0.25 ng/ml, read-out: Inhibition of IL-23 induced pSTAT3 (IC50 nM)
Text: HEK-Blue™ IL-23 cells (Invivogen) are designed for the detection of bioactive human (hIL-23) and murine IL-23 (mIL-23) by monitoring the activation of the STAT3 pathway. Binding of IL-23 to its receptor on the surface of HEK-Blue™ IL-23 cells triggers a signaling cascade leading to the activation of STAT3 and the subsequent production of secreted embryonic alkaline phosphatase (SEAP). This can be readily assessed using QUANTI-Blue™ Solution, a SEAP detection reagent.
HEK-Blue™ IL-23 cells were cultured as described by Invivogen.
On the first day of assay 10 μL of the HEK-Blue IL-23 cell suspension (final concentration: 10,000 cells/well) and 10 μl of serially diluted compound solutions were dispensed into a 384-well assay plate. After pre-incubation of the reaction mixtures at 37° C./5% CO2/95% humidity for 60 minutes, 10 μl of the humanIL-23 cytokine (final concentration: 0.25 ng/ml) was added to each well for the STAT3 signaling activation. The plate was incubated overnight at 37° C./5% CO2/95% humidity.
On the second day 20 μl per well of Quanti-Blue detection solution (prepared according to the manufacture instruction) was dispensed into a new 384-well plate and followed by the transfer of 5 μl supernatant of the overnight incubated cell/sample mixtures. After incubation of 45 min at room temperature signals were measured with PHERAstar (BMG) at OD 620-655 nm.
Dose response data were fitted with XLfit.

Molecule	IC50
COc1ccc(C[C@@H]2NC(=O)[C@H](CCCNC(=N)N)NC(=O)[C@H](CCC(N)=O)NC(=O)[C@H](Cc3c[nH]c4ccccc34)NC(=O)[C@H]([C@@H](C)O)NC(=O)[C@H](CC(N)=O)NC(=O)[C@H](NC(C)=O)CCCCNC(=O)CC[C@@H](C(=O)N[C@@H](CC(N)=O)C(=O)N[C@@H](CC(N)=O)C(N)=O)NC(=O)C(C)(C)NC(=O)[C@H](Cc3cccc4ccccc34)NC2=O)cc1 [compound 16] (Ac-[dK]NTWQRY(Me)[1Nal][Aib]ENN-NH2; lactam 1-10)	8010 nM
COc1ccc(C[C@@H]2NC(=O)[C@H](CCCNC(=N)N)NC(=O)[C@H](CCC(N)=O)NC(=O)[C@H](Cc3c[nH]c4ccccc34)NC(=O)[C@H]([C@@H](C)O)NC(=O)[C@H](CC(N)=O)NC(=O)[C@H](NC(C)=O)CCCCNC(=O)C[C@@H](C(=O)N[C@@H](CC(N)=O)C(=O)N[C@@H](CC(N)=O)C(N)=O)NC(=O)[C@H](CCCCNC(C)=O)NC(=O)[C@H](Cc3cccc4ccccc34)NC2=O)cc1 [compound 17] (Ac-[dK]NTWQRY(Me)[1Nal]K(Ac)DNN-NH2; lactam 1-10)	5650 nM
CC(=O)N[C@H]1CCCNC(=O)CC[C@@H](C(=O)N[C@@H](CC(N)=O)C(=O)N[C@@H](CC(N)=O)C(N)=O)NC(=O)C(C)(C)NC(=O)[C@H](Cc2ccc3ccccc3c2)NC(=O)[C@H](Cc2ccc(OCCN)cc2)NC(=O)[C@H](CCCNC(=N)N)NC(=O)[C@H](CCC(N)=O)NC(=O)[C@H](Cc2c[nH]c3ccccc23)NC(=O)[C@H]([C@@H](C)O)NC(=O)[C@H](CC(N)=O)NC1=O [compound 38] (Ac-[Orn]NTWQR[AEF][2Nal][Aib]ENN-NH2; lactam 1-10)	1570 nM
COc1ccc(C[C@@H]2NC(=O)[C@H](CCCNC(=N)N)NC(=O)[C@H](CCC(N)=O)NC(=O)[C@H](Cc3c[nH]c4ccccc34)NC(=O)[C@H]([C@@H](C)O)NC(=O)[C@H](CC(N)=O)NC(=O)[C@H](NC(C)=O)CCCCNC(=O)C[C@@H](C(=O)N[C@@H](CC(N)=O)C(=O)N[C@@H](CC(N)=O)C(N)=O)NC(=O)[C@H](CCCCNC(C)=O)NC(=O)[C@H](Cc3ccc4ccccc4c3)NC2=O)cc1 [compound 28] (Ac-[dK]NTWQRY(Me)[2Nal]K(Ac)DNN-NH2; lactam 1-10)	2210 nM
COc1ccc(C[C@@H]2NC(=O)[C@H](CCCNC(=N)N)NC(=O)[C@H](CCC(N)=O)NC(=O)[C@H](Cc3c[nH]c4ccccc34)NC(=O)[C@H]([C@@H](C)O)NC(=O)[C@H](CC(N)=O)NC(=O)[C@H](NC(C)=O)CCCCNC(=O)C[C@@H](C(=O)N[C@@H](CC(N)=O)C(=O)N[C@@H](CC(N)=O)C(N)=O)NC(=O)[C@H](CCC(N)=O)NC(=O)[C@H](Cc3cccc4ccccc34)NC2=O)cc1 [compound 19] (Ac-[dK]NTWQRY(Me)[1Nal]QDNN-NH2; lactam 1-10)	9600 nM
CC(=O)N[C@@H]1CCCCNC(=O)C[C@@H](C(=O)N[C@@H](CC(N)=O)C(=O)N[C@@H](CC(N)=O)C(N)=O)NC(=O)C(C)(C)NC(=O)[C@H](Cc2cccc3ccccc23)NC(=O)[C@H](Cc2ccc(O)cc2)NC(=O)[C@H](CCCNC(=N)N)NC(=O)[C@H](CCC(N)=O)NC(=O)[C@H](Cc2c[nH]c3ccccc23)NC(=O)[C@H]([C@@H](C)O)NC(=O)[C@H](CC(N)=O)NC1=O [compound 14] (Ac-[dK]NTWQRY[1Nal][Aib]DNN-NH2; lactam 1-10)	1380 nM
COc1ccc(C[C@@H]2NC(=O)[C@H](CCCNC(=N)N)NC(=O)[C@H](CCC(N)=O)NC(=O)[C@H](Cc3c[nH]c4ccccc34)NC(=O)[C@H]([C@@H](C)O)NC(=O)[C@H](CC(N)=O)NC(=O)[C@H](NC(C)=O)CCCCNC(=O)C[C@@H](C(=O)N[C@@H](CC(N)=O)C(=O)N[C@@H](CC(N)=O)C(N)=O)NC(=O)[C@H](CCC(N)=O)NC(=O)[C@H](Cc3ccc4ccccc4c3)NC2=O)cc1 [compound 30] (Ac-[dK]NTWQRY(Me)[2Nal]QDNN-NH2; lactam 1-10)	6050 nM
COc1ccc(C[C@@H]2NC(=O)[C@H](CCCNC(=N)N)NC(=O)[C@H](CCC(N)=O)NC(=O)[C@H](Cc3c[nH]c4ccccc34)NC(=O)[C@H]([C@@H](C)O)NC(=O)[C@H](CC(N)=O)NC(=O)[C@H](NC(C)=O)CCCCNC(=O)C[C@@H](C(=O)N[C@@H](CC(N)=O)C(N)=O)NC(=O)C(C)(C)NC(=O)[C@H](Cc3ccc4ccccc4c3)NC2=O)cc1 [compound 26] (Ac-[dK]NTWQRY(Me)[2Nal][Aib]DN-NH2; lactam 1-10)	8110 nM

From patent publication US20260250322A1, “NEW PEPTIDES AS SELECTIVE IL-23 RECEPTOR INHIBITORS” (SANOFI, priority 2023, published 2026)
